Assay results from patent US8207329B2, “Synthesis of chlorins and phorbines with enhanced red spectral features” (North Carolina State University, priority 2005, dated 2012).
Where “and” joins values, the source holds several entries; their conditions need not be identical. Equal values may be shown once. Read-outs that look alike come from different tables or passages of the source.

Key:
[1] = Fluorescence spectra and fluorescence quantum yields in toluene at room temperature; assay type: physicochemical
Protocol: Fluorescence Spectroscopy. The fluorescence spectra and fluorescence quantum yields reported herein were collected in toluene at room temperature. Measurements of fluorescence quantum yield (Φf) were carried out using chlorin Zn-11 (Φf=0.065) as a standard (Strachan, J.-P. et al., J. Org. Chem. 2000, 65, 3160-3172).

[2] = Absorption spectra obtained in toluene at room temperature; assay type: physicochemical
Text: (§1) Absorption Spectra. The spectral properties of interest in the chlorins include the position of the long-wavelength Qy transition, the intensity of the Qy transition, and the fluorescence quantum yield of the chlorin. The intensity of the Qy transition can be assessed by the measured molar absorption coefficient; however, comparisons of such values are somewhat unreliable given the experimental variability encountered upon handling small quantities of materials. A better comparison is achieved by examination of the ratio of the intensities of the B and Qy bands for a given compound (B/Qy ratio), which is determined simply by absorption spectroscopy without requiring determination of the molar absorption coefficient. For a wide variety of applications, bathochromic and hyperchromic shifts of the Qy band are desired (i.e., shifted to longer wavelength and intensified), thereby affording strong absorption in the deep-red region.
General. ^1H NMR (400 MHz) and ^13C NMR (75 MHz) spectra were collected at room temperature in CDCl3. Absorption spectra were obtained in toluene at room temperature. Chlorins were analyzed by laser desorption mass spectrometry (LD-MS) in the absence of a matrix. Fast atom bombardment mass spectrometry (FAB-MS) data are reported for the molecule ion or protonated molecule ion. Melting points are uncorrected. All commercially available materials were used as received. All palladium-coupling reactions were carried out using standard Schlenk-line techniques.
as §1, with “B. Absorption” for “Absorption”, “Spectroscopy.” for “Spectra.”, “increased” for “intensified), thereby affording strong absorption”, “intensity).” for “the deep-red region.”
General. ^1H NMR (400 MHz) and ^13C NMR (75 MHz) spectra were collected at room temperature in CDCl3 unless noted otherwise. Absorption spectra were obtained in toluene at room temperature. Chlorins were analyzed by laser desorption mass spectrometry (LD-MS) in the absence of a matrix. Metalation of free base chlorins was monitored by fluorescence spectroscopy. Melting points are uncorrected. All commercially available materials were used as received.

[3] = comparison values, Strachan et al.; cited from earlier work
[4] = Table 1, in toluene at room temperature

Row | strong / dominant Qy(0,0) fluorescence band [1] | weak emission feature / broad weak band [1] | fluorescence quantum yield (Φf) ([1]; standard Zn-11 (Φf=0.065)) | B/Qy intensity ratio [2, 4] | Log ε (M^−1cm^−1) (Qy band) [2, 4] | λmax (nm), B [2, 4] [nm] | λmax (nm), Qy [2, 4] [nm] | redshift of the Qy band ([2]; Example 1, versus benchmark chlorin lacking the 13-substituent (Zn-11 or 11), toluene) [nm] | Qy band ([2]; figure legends (FIG. 1, 2, 4, 5), toluene at room temperature, normalized at the B bands) [nm] | Compound | fluorescence quantum yield (Φf) [3]
1 | approximately 668 nm | ~711 nm and ~744 nm | 0.23 | 2.3 | 4.67 | 422 | 661 |  |  | CC(=O)c1cc2[nH]c1cc1nc(cc3ccc([nH]3)c(-c3ccc(C)cc3)c3nc(c2-c2c(C)cc(C)cc2C)C=C3)C(C)(C)C1 [compound 8, 13-Acetyl-17,18-dihydro-10-mesityl-18,18-dimethyl-5-p-tolylporphyrin] | 
2 |  |  |  | 2.5 |  | 417 | 660 | 19 | 660 | Cc1ccc(-c2c3nc(c(-c4c(C)cc(C)cc4C)c4cc5c([nH]4)c(c4nc(cc6ccc2[nH]6)C(C)(C)C4)CC5=O)C=C3)cc1 [compound 10, 18,18-Dimethyl-10-mesityl-13^1-oxo-5-p-tolylphorbine] | 0.29
